Values of other authors as cited in patent US20260183237A1, “NANOEMULSION WITHOUT PROPYLENE GLYCOL” (BIOFRONTERA, INC., priority 2023, published 2026).

SMILES: NCC(=O)CCC(=O)O [5-aminolevulinic acid]
- octanol-water partition coefficient (logP): around −3
